Laboratory results as given in patent US9180155B2, “Compositions from Nigella sativa” (Bio Nexus, Ltd, priority 2013, dated 2015).

What was measured:
AMPK = AMPK activation (pT172-AMPK) in C2C12 myocytes; assay type: cell-based, Mouse; details: 1 mM
Method: Mouse C2C12 myoblasts were obtained from American Type Culture Collection (Manassas, Va.), and were maintained in Dulbecco's modified Eagle's medium (DMEM) supplemented with 10% fetal bovine serum at 37° C. under a humidified atmosphere of 5% CO2.
C2C12 cells were seeded at an initial density of 6×10^4 cells/cm^2 in 24-well plates. For two days, the cells were allowed grow to reach confluence. Following confluence, the cells were forced to differentiate into myocytes by culturing in DMEM supplemented with 2% horse serum for seven days.
On Day 8 to 10 post differentiation, C2C12 myocytes were incubated in serum-free DMEM plus 0.5% BSA (bovine serum albumin) for three hours. […]
pT^172-AMPK was quantified using the Biosource AMPK Immunoassay Kit (Camarillo, Calif.) without modification. Protein content of the cell lysates was determined with the Active Motif fluorescent protein assay reagent (Carlsbad Calif., Hoefelschweiger, B. K., Duerkop, A., and Wolfbeis, O. S, Novel type of general protein assay using a chromogenic and fluorogenic amine-reactive probe. Anal Biochem 2005, 344, 122-9). A Packard Fluorocount spectrofluorometer (Model#BF 10000, Meridan, Conn.) was used for protein determination and a MEL312e BIO-KINETICS READER (Bio-Tek Instruments, Winooski, Vt.) was used for quantification of pT^172-AMPK. […]

[1] = test system: adiponectin secretion in 3T3-L1 adipocytes; test: Adiponectin secretion in t10-CLA-stimulated 3T3-L1 adipocytes; assay type: cell-based, murine
Method: The 3T3-L1 murine fibroblast model as used in Example 4 was used in this experiments. Test materials were added four hours prior to the addition of t10-CLA at a concentration of 50 μM. Following overnight incubation, the supernatant media were sampled for determination of IL-6 and adiponectin. The adiponectin secreted into the medium was quantified using the Mouse Adiponectin Quantikine® Immunoassay kit with no modifications (R&D Systems, Minneapolis, Minn.). […] Test materials and were assayed in duplicate, while solvent controls were replicated eight times. IL-6 and adiponectin secretion were represented relative to the IL-6 and adiponectin secretion of the t10-CLA only controls as the IL-6 and adiponectin index and differences among the means were analyzed by the student's t-test assuming a five percent probability of a type I error (Excel; Microsoft, Redmond, Wash.).

[2] = test system: IL-6 secretion in 3T3-L1 adipocytes; test: IL-6 secretion in t10-CLA-stimulated 3T3-L1 adipocytes; assay type: cell-based, murine
Method: The 3T3-L1 murine fibroblast model as used in Example 4 was used in this experiments. Test materials were added four hours prior to the addition of t10-CLA at a concentration of 50 μM. Following overnight incubation, the supernatant media were sampled for determination of IL-6 and adiponectin. The IL-6 secreted into the medium in response to […] stimulation was quantified using the Quantikine® Mouse IL-6 Immunoassay kit with no modifications (R&D Systems, Minneapolis, Minn.). […] All supernatant media samples were diluted 1:30 for quantification. Test materials and were assayed in duplicate, while solvent controls were replicated eight times. IL-6 and adiponectin secretion were represented relative to the IL-6 and adiponectin secretion of the t10-CLA only controls as the IL-6 and adiponectin index and differences among the means were analyzed by the student's t-test assuming a five percent probability of a type I error (Excel; Microsoft, Redmond, Wash.).

Caco-2 monolayers = test: t10-CLA-induced loss of TEER in Caco-2 monolayers; assay type: cell-based, human; details: t10-CLA 50 μM control = 100; μg TQ equivalents/mL: Thymoquinone 5.0, NS8 0.11, NS9 0.99, NS10 0.012, NSSpent#2 0.0005; NSSpent#1 5 μg/mL
Excerpt: The protocol for growing and differentiation the human Caco-2 colon andenocarcinoma cells was a modification of Protocol 3 as described by Yamashita et al. [[…]., and Furuyama, Y. 2002) New and better protocols for a short-term Caco-2 cell culture system, J Pharm Sci 91, 669-679]. Caco-2 Human Colon Adenocarcinoma cells were obtained from ATCC (Rockville, Md.; catalog #HTB-37) and maintained in a growth media: DMEM (Dulbecco's Modified Eagles Medium 1×) containing L-glutamine, glucose; Cellgro catalog #35-010CV with the following additions: (1) Penicillin (5,000 IU/mL)/Streptomycin (5,000 μg/mL) Cellgro catalog #30-001C1, (2) 10% FBS-Fetal Bovine Serum, Characterized; Hyclone catalog #SH30071.3, and (3) 1% NEAA-Non Essential Amino Acids; Cellgro catalog #25-025-CI; cells were cultured at 37 C in a humidified air-5% CO2 atmosphere in T175 flasks. BIOCOAT^R HTS Caco-2 Assay System kits (Becton Dickinson, N.J.; catalog #354801) consisting of 24-well fibrillar collagen coated inserts and feeder trays were used in all experiments and plated as follows. Media was removed from the T175 flasks and cells were washed with 10 mLs PBS (phosphate buffered saline 1× without Ca^++, without Mg^++; Cellgro #25-053-CI). […]

[3] = t10-CLA 50 μM control = 100, μg TQ equivalents/mL: Thymoquinone 5.0, NS8 0.11, NS9 0.99, NS10 0.012, NSSpent#2 0.0005, NSSpent#1 5 μg/mL

NC(=O)c1ncn([C@@H]2O[C@H](CO)[C@@H](O)[C@H]2O)c1N [AICAR, 5-Aminoimidazole-4-carboxamide ribonucleoside]
increase of pT172-AMPK relative to DMSO negative controls (AMPK; 30 min, average over ten independent assays (95% CI=1.26-2.21)): 1.67 fold | activation of AMPK (AMPK; in assays run with N. sativa supercritical CO2 extracts): 1.45 fold

CCCCC/C=C\C=C\CCCCCCCCC(=O)O (single isomer, unassigned) [t10-CLA, Trans-10,Cis12-Conjugated Linoleic Acid Isomer]
reduction in adiponectin secretion relative to controls ([1]; 50 μM, overnight): 65% | Adiponectin Index [1, 3]: 100 ± 14 | increase in IL-6 secretion relative to controls ([2]; 50 μM, overnight): 8 fold | IL-6 Index [2, 3]: 100 ± 11 | Relative Loss of TEER (Caco-2 monolayers): 100 ± 5.81
